Assay results from US8580794B2 (AbbVie Inc., priority 2009, dated 2013).

Target: GST-Bc1-2 (Homo sapiens, UniProt P10415)
Assay: Time Resolved-Fluorescence Resonance Energy Transfer (TR-FRET) Bcl-2 binding assay with F-Bak peptide probe
Settings: GST-Bcl-2 1 nM, F-Bak probe 100 nM, Tb-anti-GST 1 nM; '<' = below limit of detection; read-out: TR-FRET Bcl-2 Binding Ki

GST-Bc1-2, sequence (P10415 whole entry): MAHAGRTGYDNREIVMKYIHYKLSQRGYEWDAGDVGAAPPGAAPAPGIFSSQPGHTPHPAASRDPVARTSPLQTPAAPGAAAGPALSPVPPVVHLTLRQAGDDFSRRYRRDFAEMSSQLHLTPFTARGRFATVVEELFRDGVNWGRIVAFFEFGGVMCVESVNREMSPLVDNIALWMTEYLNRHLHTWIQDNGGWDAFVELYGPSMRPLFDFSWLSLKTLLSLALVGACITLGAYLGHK

`CC1(C)CCC(CN2CCN(c3ccc(C(=O)NS(=O)(=O)c4ccc(NC[C@@H]5CCN(C6COC6)C5)c([N+](=O)[O-])c4)c(Oc4cnc5[nH]ccc5c4)c3)CC2)=C(c2ccc(Cl)cc2)C1` [Example 209, 4-(4-{[2-(4-chlorophenyl)-4,4-dimethylcyclohex-1-en-1-yl]methyl}piperazin-1-yl)-N-{[3-nitro-4-({[(3S)-1-oxetan-3-ylpyrrolidin-3-yl]methyl}amino)phenyl]sulfonyl}-2-(1H-pyrrolo[2,3-b]pyridin-5-yloxy)benzamide] and `CC1(C)CCC(CN2CCN(c3ccc(C(=O)NS(=O)(=O)c4ccc(NC[C@H]5CCN(C6CCOCC6)C5)c([N+](=O)[O-])c4)c(Oc4cnc5[nH]ccc5c4)c3)CC2)=C(c2ccc(Cl)cc2)C1` [Example 118, 4-(4-{[2-(4-chlorophenyl)-4,4-dimethylcyclohex-1-en-1-yl]methyl}piperazin-1-yl)-N-{[3-nitro-4-({[(3R)-1-tetrahydro-2H-pyran-4-ylpyrrolidin-3-yl]methyl}amino)phenyl]sulfonyl}-2-(1H-pyrrolo[2,3-b]pyridin-5-yloxy)benzamide] cannot be ordered by Ki: less than 0.01 nM for the first, less than 0.01 nM for the second.

`CC1(C)CCC(CN2CCN(c3ccc(C(=O)NS(=O)(=O)c4ccc(NC5CN(C6CCOC6)C5)c([N+](=O)[O-])c4)c(Oc4cnc5[nH]ccc5c4)c3)CC2)=C(c2ccc(Cl)cc2)C1` (stereo not drawn) [Example 117, 4-(4-{[2-(4-chlorophenyl)-4,4-dimethylcyclohex-1-en-1-yl]methyl}piperazin-1-yl)-N-({3-nitro-4-[(1-tetrahydrofuran-3-ylazetidin-3-yl)amino]phenyl}sulfonyl)-2-(1H-pyrrolo[2,3-b]pyridin-5-yloxy)benzamide] and `CC1(C)CCC(CN2CCN(c3ccc(C(=O)NS(=O)(=O)c4ccc(NCC5CNCCO5)c([N+](=O)[O-])c4)c(Oc4cnc5[nH]ccc5c4)c3)CC2)=C(c2ccc(Cl)cc2)C1` (stereo not drawn) [Example 113, 4-(4-{[2-(4-chlorophenyl)-4,4-dimethylcyclohex-1-en-1-yl]methyl}piperazin-1-yl)-N-({4-[(morpholin-2-ylmethyl)amino]-3-nitrophenyl}sulfonyl)-2-(1H-pyrrolo[2,3-b]pyridin-5-yloxy)benzamide] cannot be ordered by Ki: less than 0.01 nM for the first, less than 0.01 nM for the second.

Going from `CN1CCC(F)(COc2ncc(S(=O)(=O)NC(=O)c3ccc(N4CCN(CC5=C(c6ccc(Cl)cc6)CC(C)(C)CC5)CC4)cc3Oc3cnc4[nH]ccc4c3)cc2Cl)CC1` [Example 269, N-({5-chloro-6-[(4-fluoro-1-methylpiperidin-4-yl)methoxy]pyridin-3-yl}sulfonyl)-4-(4-{[2-(4-chlorophenyl)-4,4-dimethylcyclohex-1-en-1-yl]methyl}piperazin-1-yl)-2-(1H-pyrrolo[2,3-b]pyridin-5-yloxy)benzamide] to `CC1(C)CCC(CN2CCN(c3ccc(C(=O)NS(=O)(=O)c4cnc(OCC5CCOCC5)c(Cl)c4)c(Oc4cnc5[nH]ccc5c4)c3)CC2)=C(c2ccc(Cl)cc2)C1` [Example 40, 4-(4-{[2-(4-chlorophenyl)-4,4-dimethylcyclohex-1-en-1-yl]methyl}piperazin-1-yl)-N-{[5-chloro-6-(tetrahydro-2H-pyran-4-ylmethoxy)pyridin-3-yl]sulfonyl}-2-(1H-pyrrolo[2,3-b]pyridin-5-yloxy)benzamide], the Ki falls from 0.016 nM to less than 0.01 nM.

Going from `CC1(C)CCC(CN2CCN(c3ccc(C(=O)NS(=O)(=O)c4cnc(N[C@H]5CC[C@H](N6CCOCC6)CC5)c(C#N)c4)c(Oc4cnc5[nH]ccc5c4)c3)CC2)=C(c2ccc(Cl)cc2)C1` [Example 109, Trans-4-(4-{[2-(4-chlorophenyl)-4,4-dimethylcyclohex-1-en-1-yl]methyl}piperazin-1-yl)-N-({5-cyano-6-[(4-morpholin-4-ylcyclohexyl)amino]pyridin-3-yl}sulfonyl)-2-(1H-pyrrolo[2,3-b]pyridin-5-yloxy)benzamide] to `CC1(C)CCC(CN2CCN(c3ccc(C(=O)NS(=O)(=O)c4ccc(OCC5CCN(C6COC6)CC5)c(Cl)c4)c(Oc4cnc5[nH]ccc5c4)c3)CC2)=C(c2ccc(Cl)cc2)C1` [Example 309, N-[(3-chloro-4-{[1-(oxetan-3-yl)piperidin-4-yl]methoxy}phenyl)sulfonyl]-4-(4-{[2-(4-chlorophenyl)-4,4-dimethylcyclohex-1-en-1-yl]methyl}piperazin-1-yl)-2-(1H-pyrrolo[2,3-b]pyridin-5-yloxy)benzamide], the Ki falls from 0.127 nM to 0.023 nM (5.5-fold).

Compared with `CN(C)CC(=O)N1CCC(COc2ccc(S(=O)(=O)NC(=O)c3ccc(N4CCN(CC5=C(c6ccc(Cl)cc6)CC(C)(C)CC5)CC4)cc3Oc3cnc4[nH]ccc4c3)cc2Cl)CC1` [Example 295, N-[(3-chloro-4-{[1-(N,N-dimethylglycyl)piperidin-4-yl]methoxy}phenyl)sulfonyl]-4-(4-{[2-(4-chlorophenyl)-4,4-dimethylcyclohex-1-en-1-yl]methyl}piperazin-1-yl)-2-(1H-pyrrolo[2,3-b]pyridin-5-yloxy)benzamide], `COCC(=O)N1CCC(COc2ccc(S(=O)(=O)NC(=O)c3ccc(N4CCN(CC5=C(c6ccc(Cl)cc6)CC(C)(C)CC5)CC4)cc3Oc3cnc4[nH]ccc4c3)cc2Cl)CC1` [Example 294, N-[(3-chloro-4-{[1-(methoxyacetyl)piperidin-4-yl]methoxy}phenyl)sulfonyl]-4-(4-{[2-(4-chlorophenyl)-4,4-dimethylcyclohex-1-en-1-yl]methyl}piperazin-1-yl)-2-(1H-pyrrolo[2,3-b]pyridin-5-yloxy)benzamide] is higher in Ki: less than 0.01 nM for the first, 0.046 nM for the second.

`CC1(C)CCC(CN2CCN(c3ccc(C(=O)NS(=O)(=O)c4ccc(OCC5CCC6(CC5)COC6)c([N+](=O)[O-])c4)c(Oc4cnc5[nH]ccc5c4)c3)CC2)=C(c2ccc(Cl)cc2)C1` [Example 351, 4-(4-{[2-(4-chlorophenyl)-4,4-dimethylcyclohex-1-en-1-yl]methyl}piperazin-1-yl)-N-{[3-nitro-4-(2-oxaspiro[3.5]non-7-ylmethoxy)phenyl]sulfonyl}-2-(1H-pyrrolo[2,3-b]pyridin-5-yloxy)benzamide] and `CC1(C)CCC(CN2CCN(c3ccc(C(=O)NS(=O)(=O)c4ccc(OCC5CCCC(=O)C5)c([N+](=O)[O-])c4)c(Oc4cnc5[nH]ccc5c4)c3)CC2)=C(c2ccc(Cl)cc2)C1` (stereo not drawn) [Example 205, 4-(4-{[2-(4-chlorophenyl)-4,4-dimethylcyclohex-1-en-1-yl]methyl}piperazin-1-yl)-N-({3-nitro-4-[(3-oxocyclohexyl)methoxy]phenyl}sulfonyl)-2-(1H-pyrrolo[2,3-b]pyridin-5-yloxy)benzamide] cannot be ordered by Ki: less than 0.01 nM for the first, less than 0.01 nM for the second.

Work on `CC1(C)CCC(CN2CCN(c3ccc(C(=O)NS(=O)(=O)c4ccc(NCC5CN(CCF)CCO5)c([N+](=O)[O-])c4)c(Oc4cnc5[nH]ccc5c4)c3)CC2)=C(c2ccc(Cl)cc2)C1` (stereo not drawn) [Example 165, 4-(4-{[2-(4-chlorophenyl)-4,4-dimethylcyclohex-1-en-1-yl]methyl}piperazin-1-yl)-N-{[4-({[4-(2-fluoroethyl)morpholin-2-yl]methyl}amino)-3-nitrophenyl]sulfonyl}-2-(1H-pyrrolo[2,3-b]pyridin-5-yloxy)benzamide] yielded a Ki of less than 0.01 nM.

Same assay, conditions: TR-FRET Bcl-2 Binding Ki

`CN1CCC(Nc2ccc(S(=O)(=O)NC(=O)c3ccc(N4CCN(CC5=C(c6ccc(Cl)cc6)CC(C)(C)CC5)CC4)cc3Oc3ccc4[nH]ccc4c3)cc2[N+](=O)[O-])CC1` [Example 90, 4-(4-{[2-(4-chlorophenyl)-4,4-dimethylcyclohex-1-en-1-yl]methyl}piperazin-1-yl)-2-(1H-indol-5-yloxy)-N-({4-[(1-methylpiperidin-4-yl)amino]-3-nitrophenyl}sulfonyl)benzamide] was tested, and the Ki was 0.013 nM.

Same assay, conditions: read-out: Bcl-2 FRET ki

For `CN1CCC(Nc2ccc(S(=O)(=O)NC(=O)c3ccc(N4CCN(CC5=C(c6ccc(Cl)cc6)CC(C)(C)CC5)CC4)cc3Oc3ccc4[nH]ccc4c3)cc2[N+](=O)[O-])CC1` [Example 90, 4-(4-{[2-(4-chlorophenyl)-4,4-dimethylcyclohex-1-en-1-yl]methyl}piperazin-1-yl)-2-(1H-indol-5-yloxy)-N-({4-[(1-methylpiperidin-4-yl)amino]-3-nitrophenyl}sulfonyl)benzamide], the Ki was 0.013 nM.
